Experimental data reported in US20260283968A1, “METHOD FOR PRODUCING MILK LIKE PRODUCTS” (SOCIÉTÉ DES PRODUITS NESTLÉ S.A., priority 2023, published 2026).

Columns and labels:
[1] = system: iPSCs derived mammary gland organoids; test: Flow cytometry quantification of mammary gland progenitor markers during 3D differentiation of iPSCs; type: cell-based, human; conditions: 20 ng/mL BMP4, 1 μM RA, single or combination, 42 days or 31 days protocol, vs control condition
Text: In order to generate milk bioactives that closely resemble those found in human breast milk, different methods using bone morphogenetic protein 4 (BMP4) and retinoic acid (RA) in 42 days and 31 days as a shortened time-course protocol were established in a 3D-platform using iPSCs derived mammary gland organoids as a biomimetic model of the human mammary gland (FIG. 6).

[2] = system: iPS-derived mammary-gland cells; test: LC-MS/MS targeted proteomic analysis of osteopontin secretion in culture media; type: cell-based, human; conditions: BMP4 and RA added to the differentiation culture medium

Row | Molecule | expression of mammary gland progenitor markers EpCAM (CD326), CD49f, MUC1 (CD227), GATA3 [1] | expression and secretion of milk-specific bioactive marker osteopontin (OPN) [2]
1 | CC1=C(/C=C/C(C)=C/C=C/C(C)=C/C(=O)O)C(C)(C)CCC1 [RA, retinoic acid] | can induce the expression of mammary gland progenitor markers | improve expression and secretion levels of milk-specific bioactive markers
2 | BMP4: bone morphogenetic protein 4, differentiation factor added to the culture medium (protein, UniProt P12644 293-408, looked up) Bone morphogenetic protein 4: SPKHHSQRARKKNKNCRRHSLYVDFSDVGWNDWIVAPPGYQAFYCHGDCPFPLADHLNSTNHAIVQTLVNSVNSSIPKACCVPTELSAISMLYLDEYDKVVLKNYQEMVVEGCGCR | can induce the expression of mammary gland progenitor markers | improve expression and secretion levels of milk-specific bioactive markers
